We go through 27 compounds from patent US20050282818A1, “Ubiquitin ligase inhibitors” (Rigel Pharmaceuticals, Inc., priority 2004, published 2005).

In one assay the target is T1, TRAF6/Uev1A/Ubc13 (Homo sapiens, UniProt Q9Y4K3).
T1 sequence (Q9Y4K3 1-522): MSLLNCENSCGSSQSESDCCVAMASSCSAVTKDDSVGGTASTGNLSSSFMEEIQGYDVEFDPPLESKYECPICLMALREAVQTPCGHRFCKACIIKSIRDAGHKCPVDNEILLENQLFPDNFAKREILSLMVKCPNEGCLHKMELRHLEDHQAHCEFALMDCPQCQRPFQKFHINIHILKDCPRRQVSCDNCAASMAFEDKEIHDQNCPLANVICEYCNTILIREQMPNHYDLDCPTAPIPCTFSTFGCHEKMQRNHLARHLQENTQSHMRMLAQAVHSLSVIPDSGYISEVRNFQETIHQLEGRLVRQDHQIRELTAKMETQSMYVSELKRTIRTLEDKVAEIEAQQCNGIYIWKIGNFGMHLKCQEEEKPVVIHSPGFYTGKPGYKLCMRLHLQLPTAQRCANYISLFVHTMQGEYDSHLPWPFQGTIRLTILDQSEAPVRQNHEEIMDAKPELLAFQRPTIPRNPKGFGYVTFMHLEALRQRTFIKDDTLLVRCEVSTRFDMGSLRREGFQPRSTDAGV
The assay can be described thus: TRAF6/Uev1A/Ubc13 plate-based ubiquitin ligase assay. The class given is biochemical. In a few lines:
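Ligase activity was read as luminescence from anti-Flag/HRP detection of Flag-ubiquitin bound to casein-blocked Ni-plates alongside His-ubiquitin after a 1 h room-temperature reaction. Buffer: 62.5 mM Tris pH 7.5, 6.25 mM MgCl2, 1.0 mM DTT, 2 μM ATP; E1, Uev1a/Ubc13 and TRAF6 added last to start. IC50s derived across compound concentrations.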

Assay [1] relates to ICAM-1 expression in A549 cells. The assay can be described thus: ICAM assay (IL-1 induced ICAM-1/CD54 expression in A549 cells). The class given is cell-based, human. In a few lines: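 Luminescent immunostaining (anti-CD54, then anti-mouse IgG, 1 h) quantifies ICAM-1 on A549 cells induced 4 h at 37° C by IL-1 (4 μl of 25 ng/ml added). Compound is added 1 h before the cytokine to cells plated overnight at 10,000 per well.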

Another assay has as its target APC11/APC2 (Homo sapiens, UniProt Q9NYG5+Q9UJX6). Description: APC-11/APC-2 ligase assay (APC auto ubiquitination). It counts as biochemical. The settings on record: APC assay. In short, it runs like this:
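His-tagged APC was captured on nickel plates with human E1 (5 ng/well), UbcH5c (20 ng/well), APC (100 ng/well) and Flag-ubiquitin (100 ng/well) in a Tris pH 7.6 reaction buffer containing 2.5 mM ATP, for 1 hour at room temperature. Read-out was anti-Flag/HRP chemiluminescence. IC50 was set against a DMSO control, typically from 6 or 8 concentrations.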

Sequence of APC11/APC2 (Q9NYG5 whole entry): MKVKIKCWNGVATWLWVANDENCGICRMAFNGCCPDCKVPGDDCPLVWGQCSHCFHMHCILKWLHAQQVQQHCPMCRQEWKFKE
Sequence of APC11/APC2 (Q9UJX6 whole entry): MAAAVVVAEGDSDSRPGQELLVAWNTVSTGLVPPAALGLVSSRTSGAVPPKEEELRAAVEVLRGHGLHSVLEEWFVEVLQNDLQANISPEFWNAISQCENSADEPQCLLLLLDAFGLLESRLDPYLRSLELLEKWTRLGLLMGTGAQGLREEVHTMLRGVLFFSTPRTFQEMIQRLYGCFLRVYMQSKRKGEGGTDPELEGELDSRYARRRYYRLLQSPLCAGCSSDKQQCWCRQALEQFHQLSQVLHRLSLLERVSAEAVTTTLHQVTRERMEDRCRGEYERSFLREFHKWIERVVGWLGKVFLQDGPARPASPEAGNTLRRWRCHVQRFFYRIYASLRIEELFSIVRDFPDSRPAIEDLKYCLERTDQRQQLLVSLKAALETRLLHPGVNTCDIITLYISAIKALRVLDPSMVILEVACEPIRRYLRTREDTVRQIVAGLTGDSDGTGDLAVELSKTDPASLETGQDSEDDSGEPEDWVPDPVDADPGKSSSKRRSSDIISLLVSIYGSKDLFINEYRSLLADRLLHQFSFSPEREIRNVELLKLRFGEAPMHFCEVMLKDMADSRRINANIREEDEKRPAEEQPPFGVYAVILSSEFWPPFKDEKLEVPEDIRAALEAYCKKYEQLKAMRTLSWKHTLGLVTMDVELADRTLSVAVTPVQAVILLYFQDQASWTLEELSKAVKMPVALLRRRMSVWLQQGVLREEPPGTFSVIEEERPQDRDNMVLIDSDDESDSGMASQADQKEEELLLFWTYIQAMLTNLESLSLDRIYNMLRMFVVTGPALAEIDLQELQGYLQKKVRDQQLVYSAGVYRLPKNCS

With `Cc1ccc2nsnc2c1S(=O)(=O)Nc1ccccc1F` [compound 452, N-(2-fluorophenyl)-5-methyl-2,1,3-benzthiadiazole-4-sulfonamide], the IC50 (as a rule, the midpoint of a concentration-inhibition curve) against TRAF6/Uev1A/Ubc13 was at least 20 µM; in assay [1] (Homo sapiens, A549, ICAM assay), at least 20 µM; against APC11/APC2, at least 20 µM.
For the compound `O=S(=O)(Nc1cccc2ccccc12)c1c(Nc2cccc3ccccc23)cc(Cl)c2nonc12` [compound 415, 7-chloro-N-(naphthalen-1-yl)-5-(naphthalen-1-ylamino)-2,1,3-benzoxadiazole-4-sulfonamide], the IC50 on TRAF6/Uev1A/Ubc13 is 1 to 20 µM; in assay [1] (Homo sapiens, A549, ICAM assay), 1 to 20 µM; against APC11/APC2 it was 1 to 20 µM.
For the compound `O=S(=O)(Nc1ccc(F)cc1F)c1ccc(Nc2ccc(F)cc2F)c2nonc12` [compound 371, N-(2,4-difluorophenyl)-7-([2,4-difluorophenyl]amino)-2,1,3-benzoxadiazole-4-sulfonamide], the IC50 against TRAF6/Uev1A/Ubc13 is at least 20 µM; in assay [1] (Homo sapiens, A549, ICAM assay) it was at least 20 µM; on APC11/APC2, at least 20 µM.
In the case of `Cc1ccc(C)c(-c2cc([N+](=O)[O-])cc3nonc23)c1` [compound 484, 4-(2,5-dimethylphenyl)-6-nitro-2,1,3-benzoxadiazole], the IC50 is at least 20 µM against TRAF6/Uev1A/Ubc13; at least 20 µM in assay [1] (Homo sapiens, A549, ICAM assay); at least 20 µM against APC11/APC2.
With `COc1cc(NS(=O)(=O)c2ccc(F)c3nonc23)c(OC)cc1Cl` [compound 348, N-(4-chloro-2,5-dimethoxyphenyl)-7-fluoro-2,1,3-benzoxadiazole-4-sulfonamide], the IC50 at TRAF6/Uev1A/Ubc13 is at least 20 µM; in assay [1] (Homo sapiens, A549, ICAM assay) it was 1 to 20 µM; against APC11/APC2, at least 20 µM.
Take `COc1cc(C)ccc1NS(=O)(=O)c1ccc(N2CCOCC2)c2nonc12` [compound 386, N-(2-methoxy-4-methylphenyl)-7-(morpholin-4-yl)-2,1,3-benzoxadiazole-4-sulfonamide]: the IC50 on TRAF6/Uev1A/Ubc13 was at least 20 µM; in assay [1] (Homo sapiens, A549, ICAM assay), at least 20 µM; against APC11/APC2, at least 20 µM.
Consider `O=S(=O)(Nc1cccc2ccccc12)c1ccc(Sc2cccc3cccnc23)c2nonc12` [compound 407, N-(naphthalen-1-yl)-7-(quinolin-8-ylthio)-2,1,3-benzoxadiazole-4-sulfonamide], for which the IC50 lay in the range of 1 to 20 µM on TRAF6/Uev1A/Ubc13; 1 to 20 µM in assay [1] (Homo sapiens, A549, ICAM assay); 1 to 20 µM on APC11/APC2.
With `COc1ccc(-c2ccc([N+](=O)[O-])c3nonc23)cc1OC` [compound 465, 4-(3,4-dimethoxyphenyl)-7-nitro-2,1,3-benzoxadiazole], the IC50 is at least 20 µM at TRAF6/Uev1A/Ubc13; 1 to 20 µM in assay [1] (Homo sapiens, A549, ICAM assay); at least 20 µM against APC11/APC2.
As to `O=S(=O)(Nc1c(F)cccc1F)c1c(Cl)cc(Cl)c2nonc12` [compound 414, 5,7-dichloro-N-(2,6-difluorophenyl)-2,1,3-benzoxadiazole-4-sulfonamide], the IC50 lay in the range of 1 to 20 µM against TRAF6/Uev1A/Ubc13; 1 to 20 µM in assay [1] (Homo sapiens, A549, ICAM assay); 1 to 20 µM on APC11/APC2.
For `Fc1cc2nsnc2cc1-c1cccc2c1OCO2` [compound 460, 5-(benzodioxol-4-yl)-6-fluoro-2,1,3-benzthiadiazole], the IC50 against TRAF6/Uev1A/Ubc13 was at least 20 µM; in assay [1] (Homo sapiens, A549, ICAM assay), at least 20 µM; against APC11/APC2, at least 20 µM.
With `O=S(=O)(c1c(Cl)cc(Cl)c2nonc12)N1CCOCC1` [compound 411, 5,7-dichloro-4-{(morpholin-4-yl)sulfonyl}-2,1,3-benzoxadiazole], the IC50 against TRAF6/Uev1A/Ubc13 is 1 to 20 µM; in assay [1] (Homo sapiens, A549, ICAM assay) it was 1 to 20 µM; against APC11/APC2, at least 20 µM.
As to `O=S(=O)(Nc1cccc2ccccc12)c1c(Cl)cc(Cl)c2nonc12` [compound 416, 5,7-dichloro-N-(naphthalen-1-yl)-2,1,3-benzoxadiazole-4-sulfonamide], the IC50 against TRAF6/Uev1A/Ubc13 fell in the range of 1 to 20 µM; in assay [1] (Homo sapiens, A549, ICAM assay), 1 to 20 µM; against APC11/APC2, 1 to 20 µM.
As for `O=S(=O)(Nc1cccc2ccccc12)c1ccc(Cl)c2nonc12` [compound 392, 7-chloro-N-(naphthalen-1-yl)-2,1,3-benzoxadiazole-4-sulfonamide], the IC50 against TRAF6/Uev1A/Ubc13 is at least 20 µM; in assay [1] (Homo sapiens, A549, ICAM assay), 1 to 20 µM; on APC11/APC2 it was at least 20 µM.
As for `O=C1OC2(CCN(S(=O)(=O)c3c(Cl)ccc4nonc34)CC2)c2ccccc21` [compound 337, 1′-{[5-chloro-(2,1,3-benzoxadiazol-4-yl)]sulfonyl}-3H-spiro[2-benzofuran-1,4′-piperidin]-3-one], the IC50 against TRAF6/Uev1A/Ubc13 was at least 20 µM; in assay [1] (Homo sapiens, A549, ICAM assay) it was below 1 µM; at APC11/APC2 it was at least 20 µM.
For `Nc1cccc2c(NS(=O)(=O)c3ccc(Sc4cccc5cccnc45)c4nonc34)cccc12` [compound 390, N-(5-aminonaphthalen-1-yl)-7-(quinolin-8-ylthio)-2,1,3-benzoxadiazole-4-sulfonamide], the IC50 is 1 to 20 µM on TRAF6/Uev1A/Ubc13; at least 20 µM in assay [1] (Homo sapiens, A549, ICAM assay); 1 to 20 µM against APC11/APC2.
In the case of `Oc1ccc2c(c1)cc(Cl)c1nonc12` [compound 430, 4-chloronaphtho[2,1-c][1,2,5]oxadiazol-7-ol], the IC50 against TRAF6/Uev1A/Ubc13 is at least 20 µM; in assay [1] (Homo sapiens, A549, ICAM assay), at least 20 µM; against APC11/APC2, at least 20 µM.
Turning to `Cc1ccc(NS(=O)(=O)c2ccc(Cl)c3nonc23)c(Cl)c1` [compound 354, 7-chloro-N-(2-chloro-4-methylphenyl)-2,1,3-benzoxadiazole-4-sulfonamide], the IC50 against TRAF6/Uev1A/Ubc13 was at least 20 µM; in assay [1] (Homo sapiens, A549, ICAM assay) it was 1 to 20 µM; against APC11/APC2, at least 20 µM.
As to `COc1ccccc1-c1cc(-c2ccccc2OC)c2nonc2c1` [compound 423, 4,6-bis(2-methoxyphenyl)-2,1,3-benzoxadiazole], the IC50 against TRAF6/Uev1A/Ubc13 was at least 20 µM; in assay [1] (Homo sapiens, A549, ICAM assay), at least 20 µM; against APC11/APC2, at least 20 µM.
`CC(C)(C)c1ccc(-c2cc([N+](=O)[O-])cc3nonc23)cc1` [compound 481, 4-(4-t-butylphenyl)-6-nitro-2,1,3-benzoxadiazole]: the IC50 against TRAF6/Uev1A/Ubc13 is 1 to 20 µM; in assay [1] (Homo sapiens, A549, ICAM assay), 1 to 20 µM; on APC11/APC2 it was 1 to 20 µM.
For `Cc1c(NS(=O)(=O)c2ccc(Cl)c3nonc23)cccc1C(F)(F)F` [compound 350, 7-chloro-N-(2-methyl-3-[trifluoromethyl]phenyl)-2,1,3-benzoxadiazole-4-sulfonamide], the IC50 against TRAF6/Uev1A/Ubc13 was at least 20 µM; in assay [1] (Homo sapiens, A549, ICAM assay), 1 to 20 µM; against APC11/APC2, at least 20 µM.
For `Cc1ccc(-c2ccc([N+](=O)[O-])c3nonc23)cc1` [compound 468, 4-(4-methylphenyl)-7-nitro-2,1,3-benzoxadiazole], the IC50 against TRAF6/Uev1A/Ubc13 is at least 20 µM; in assay [1] (Homo sapiens, A549, ICAM assay), 1 to 20 µM; on APC11/APC2, 1 to 20 µM.
For the compound `Cc1cccc(-c2cc3nsnc3cc2F)c1C` [compound 457, 5-(2,3-dimethylphenyl)-6-fluoro-2,1,3-benzthiadiazole], the IC50 was at least 20 µM at TRAF6/Uev1A/Ubc13; at least 20 µM in assay [1] (Homo sapiens, A549, ICAM assay); at least 20 µM on APC11/APC2.
As for `Cc1ccc(F)cc1NS(=O)(=O)c1ccc(Cl)c2nonc12` [compound 351, 7-chloro-N-(5-fluoro-2-methylphenyl)-2,1,3-benzoxadiazole-4-sulfonamide], the IC50 on TRAF6/Uev1A/Ubc13 is at least 20 µM; in assay [1] (Homo sapiens, A549, ICAM assay), 1 to 20 µM; at APC11/APC2, at least 20 µM.
As to `COc1ccc(OC)c(NS(=O)(=O)c2ccc(Cl)c3nonc23)c1` [compound 359, 7-chloro-N-(2,5-dimethoxyphenyl)-2,1,3-benzoxadiazole-4-sulfonamide], the IC50 was at least 20 µM on TRAF6/Uev1A/Ubc13; 1 to 20 µM in assay [1] (Homo sapiens, A549, ICAM assay); at least 20 µM against APC11/APC2.
For the compound `COc1cc(Nc2ccc(S(=O)(=O)Nc3cc(OC)c(Cl)cc3OC)c3nonc23)c(OC)cc1Cl` [compound 349, N-(4-chloro-2,5-dimethoxyphenyl)-7-([4-chloro-2,5-dimethoxyphenyl]amino)-2,1,3-benzoxadiazole-4-sulfonamide], the figures for the IC50 (against TRAF6/Uev1A/Ubc13; in assay [1] (ICAM assay); against APC11/APC2) were at least 20 µM, at least 20 µM and 1 to 20 µM, respectively.
As for `O=S(=O)(Nc1c(F)cc(F)cc1F)c1ccc(Cl)c2nonc12` [compound 357, 7-chloro-N-(2,4,6-trifluorophenyl)-2,1,3-benzoxadiazole-4-sulfonamide], the IC50 at TRAF6/Uev1A/Ubc13 was at least 20 µM; in assay [1] (Homo sapiens, A549, ICAM assay) it was at least 20 µM; at APC11/APC2, at least 20 µM.
In the case of `COc1ccccc1NS(=O)(=O)c1ccc(Cl)c2nonc12` [compound 356, 7-chloro-N-(2-methoxyphenyl)-2,1,3-benzoxadiazole-4-sulfonamide], the IC50 was at least 20 µM on TRAF6/Uev1A/Ubc13; 1 to 20 µM in assay [1] (Homo sapiens, A549, ICAM assay); at least 20 µM on APC11/APC2.
